Assay results: patent publication US8519128B2, “Pyripyropene derivatives having an ACAT2-inhibiting activity” (The Kitasato Institute, priority 2007, dated 2013)
Where two headings read alike, the source gives them in different places.

Target: T1, ACAT 2 (Mus musculus, UniProt O88908)
T1 construct: The source of ACAT 2 enzyme used was a membrane fraction derived from mouse liver microsome; from tissue; host or cells: mouse liver (microsome fraction)
T1 sequence (O88908 1-525): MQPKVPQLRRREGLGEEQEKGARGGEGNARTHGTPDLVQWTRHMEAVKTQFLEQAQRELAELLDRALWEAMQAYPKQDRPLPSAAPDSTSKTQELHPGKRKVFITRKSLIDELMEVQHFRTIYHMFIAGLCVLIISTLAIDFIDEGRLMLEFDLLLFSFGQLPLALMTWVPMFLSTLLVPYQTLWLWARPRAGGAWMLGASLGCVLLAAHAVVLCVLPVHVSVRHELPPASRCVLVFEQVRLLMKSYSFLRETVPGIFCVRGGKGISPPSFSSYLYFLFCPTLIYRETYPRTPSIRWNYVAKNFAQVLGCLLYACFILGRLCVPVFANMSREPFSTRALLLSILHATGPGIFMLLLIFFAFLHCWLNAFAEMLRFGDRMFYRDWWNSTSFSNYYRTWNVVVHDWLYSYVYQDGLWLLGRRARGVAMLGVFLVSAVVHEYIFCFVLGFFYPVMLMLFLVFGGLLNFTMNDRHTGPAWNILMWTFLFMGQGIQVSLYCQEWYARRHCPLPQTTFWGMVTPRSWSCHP
Assay: ACAT-inhibiting activity, mouse liver microsome membrane fraction, [14C]oleoyl-CoA
Format: biochemical
Conditions: for Specific activity: (inhibitory activity of test compound)/(inhibitory activity of pyripyropene A): relative to pyripyropene A
Method: The source of ACAT 2 enzyme used was a membrane fraction derived from mouse liver microsome. Mouse liver was homogenized in buffer solution A (50 mM Tris-HCl (pH 7.8), 1 mM ethylenediamine tetraacetate, and 1 mM phenylmethanesulfonyl fluoride) using a homogenizer of the Potter type (Tokyo-RIKO). The homogenate was centrifuged at 12000×g, and the supernatant was ultracentrifuged at 100000×g. The sediment was taken as a microsome fraction, and this fraction was adjusted to have a protein concentration of 5 mg/ml using buffer solution A.
The chloroform layer was evaporated to dryness and was used to spot a thin layer chromatography plate (silica gel plate, Merck, 0.5 mm thickness). Elution for separation was carried out using a solvent of hexane/diethyl ether/acetic acid (70:30:1, v/v).

[1] = mouse liver microsome, 5 minutes at 37° C.

SMILES | IC50 [1] | Specific activity: (inhibitory activity of test compound)/(inhibitory activity of pyripyropene A) | IC50
CC12COC(c3ccccc3)O[C@H]1CC[C@@]1(C)C2C[C@H](OC(=O)c2ccccc2C#N)[C@@]2(C)Oc3cc(-c4cccnc4)oc(=O)c3[C@H](O)C12 (stereo partly shown) [PRD 039, 1,11-O-benzylidene-7-O-o-cyanobenzoyl-1,7,11-trideacetylpyripyropene A] | – | +++ (50 > specific activity > 10) | –
CC12COC(c3ccccc3)O[C@H]1CC[C@@]1(C)C2C[C@H](OC(=O)c2cccc(F)c2)[C@@]2(C)Oc3cc(-c4cccnc4)oc(=O)c3[C@H](O)C12 (stereo partly shown) [PRD 047, 1,11-O-benzylidene-7-O-m-fluorobenzoyl-1,7,11-trideacetylpyripyropene A] | 10 to 100 nM | +++ (50 > specific activity > 10) | –
CC12COC(c3ccccc3)O[C@H]1CC[C@@]1(C)C2C[C@H](OC(=O)c2ccc(F)cc2)[C@@]2(C)Oc3cc(-c4cccnc4)oc(=O)c3[C@H](O)C12 (stereo partly shown) [PRD 048, 1,11-O-benzylidene-7-O-p-fluorobenzoyl-1,7,11-trideacetylpyripyropene A] | 10 to 100 nM | ++ (10 > specific activity > 5) | –
CC12COC(c3ccccc3)O[C@H]1CC[C@@]1(C)C2C[C@H](OC(=O)c2ccccc2Cl)[C@@]2(C)Oc3cc(-c4cccnc4)oc(=O)c3[C@H](O)C12 (stereo partly shown) [PRD 049, 1,11-O-benzylidene-7-O-o-chlorobenzoyl-1,7,11-trideacetylpyripyropene A] | 10 to 100 nM | +++ (50 > specific activity > 10) | –
CC12COC(c3ccccc3)O[C@H]1CC[C@@]1(C)C2C[C@H](OC(=O)c2cccc(Cl)c2)[C@@]2(C)Oc3cc(-c4cccnc4)oc(=O)c3[C@H](O)C12 (stereo partly shown) [PRD 050, 1,11-O-benzylidene-7-O-m-chlorobenzoyl-1,7,11-trideacetylpyripyropene A] | 10 to 100 nM | +++ (50 > specific activity > 10) | –
CC12COC(c3ccccc3)O[C@H]1CC[C@@]1(C)C2C[C@H](OC(=O)c2ccc(Cl)cc2)[C@@]2(C)Oc3cc(-c4cccnc4)oc(=O)c3[C@H](O)C12 (stereo partly shown) [PRD 051, 1,11-O-benzylidene-7-O-p-chlorobenzoyl-1,7,11-trideacetylpyripyropene A] | 10 to 100 nM | ++ (10 > specific activity > 5) | –
CC12COC(c3ccccc3)O[C@H]1CC[C@@]1(C)C2C[C@H](OC(=O)c2cccc(Br)c2)[C@@]2(C)Oc3cc(-c4cccnc4)oc(=O)c3[C@H](O)C12 (stereo partly shown) [PRD 052, 1,11-O-benzylidene-7-O-m-bromobenzoyl-1,7,11-trideacetylpyripyropene A] | 10 to 100 nM | ++ (10 > specific activity > 5) | –
CC12COC(c3ccccc3)O[C@H]1CC[C@@]1(C)C2C[C@H](OC(=O)c2ccc(Br)cc2)[C@@]2(C)Oc3cc(-c4cccnc4)oc(=O)c3[C@H](O)C12 (stereo partly shown) [PRD 053, 1,11-O-benzylidene-7-O-p-bromobenzoyl-1,7,11-trideacetylpyripyropene A] | 10 to 100 nM | + (5 > specific activity > 1) | –
CC12COC(c3ccccc3)O[C@H]1CC[C@@]1(C)C2C[C@H](OC(=O)c2ccc(C=O)cc2)[C@@]2(C)Oc3cc(-c4cccnc4)oc(=O)c3[C@H](O)C12 (stereo partly shown) [PRD 054, 1,11-O-benzylidene-7-O-p-formylbenzoyl-1,7,11-trideacetylpyripyropene A] | 10 to 100 nM | + (5 > specific activity > 1) | –
COCCOCO[C@H]1CC2C(C)(COC(C)=O)[C@@H](OC(C)=O)CC[C@]2(C)C2[C@@H](O)c3c(cc(-c4cccnc4)oc3=O)O[C@@]21C (stereo partly shown) [PRD 055, 7-deacetyl-7-O-methoxyethoxymethylpyripyropene A] | 10 to 100 nM | +++ (50 > specific activity > 10) | –
CC(=O)OCC1(C)C2C[C@H](OC(=O)Oc3ccccc3)[C@@]3(C)Oc4cc(-c5cccnc5)oc(=O)c4[C@H](O)C3[C@@]2(C)CC[C@@H]1OC(C)=O (stereo partly shown) [PRD 057, 7-deacetyl-7-O-phenoxycarbonylpyripyropene A] | 10 to 100 nM | + (5 > specific activity > 1) | –
CC(=O)OCC1(C)C2C[C@H](OC(=O)Oc3ccc(Cl)cc3)[C@@]3(C)Oc4cc(-c5cccnc5)oc(=O)c4[C@H](O)C3[C@@]2(C)CC[C@@H]1OC(C)=O (stereo partly shown) [PRD 058, 7-O-p-chlorophenoxycarbonyl-7-deacetylpyripyropene A] | 10 to 100 nM | +++ (50 > specific activity > 10) | –
CC12CO[Si](C(C)(C)C)(C(C)(C)C)O[C@H]1CC[C@@]1(C)C2C[C@H](OC(=O)c2ccc(C#N)cc2)[C@@]2(C)Oc3cc(-c4cccnc4)oc(=O)c3[C@H](O)C12 (stereo partly shown) [PRD 059, 7-O-p-cyanobenzoyl-1,11-O-(di-tert-butylsilylene)-1,7,11-trideacetylpyripyropene A] | 100 to 1000 nM | + (5 > specific activity > 1) | –
CC12CO[Si](C(C)(C)C)(C(C)(C)C)O[C@H]1CC[C@@]1(C)C2C[C@H](OC(=O)c2ccc(C#N)cc2)[C@@]2(C)Oc3cc(-c4cccnc4)oc(=O)c3[C@H](OC(=O)c3ccc(C#N)cc3)C12 (stereo partly shown) [PRD 060, 7,13-di-(O-p-cyanobenzoyl)-1,11-O-(di-tert-butylsilylene)-1,7,11-trideacetylpyripyropene A] | 100 to 1000 nM | + (5 > specific activity > 1) | –
CC(=O)OCC1(C)C2C=C[C@@]3(C)Oc4cc(-c5cccnc5)oc(=O)c4[C@H](O)C3[C@@]2(C)CC[C@@H]1OC(C)=O (stereo partly shown) [PRD 061, 7,8-olefinpyripyropene A] | – | + (5 > specific activity > 1) | 100 to 1000 nM

Further lines, with some results ahead:

IC50 [1] | Specific activity: (inhibitory activity of test compound)/(inhibitory activity of pyripyropene A) | SMILES | IC50
10 to 100 nM | ++ (10 > specific activity > 5) | CC(=O)OCC1(C)C2C[C@H](OC(=O)c3cccc4ccccc34)[C@@]3(C)Oc4cc(-c5cccnc5)oc(=O)c4[C@H](O)C3[C@@]2(C)CC[C@@H]1OC(C)=O (stereo partly shown) [PRD 038, 7-1-naphthoyl-7-deacetylpyripyropene A] | –
10 to 100 nM | +++ (50 > specific activity > 10) | CC12COC(c3ccccc3)O[C@H]1CC[C@@]1(C)C2C[C@H](OC(=O)c2cccc(C#N)c2)[C@@]2(C)Oc3cc(-c4cccnc4)oc(=O)c3[C@H](O)C12 (stereo partly shown) [PRD 040, 1,11-O-benzylidene-7-O-m-cyanobenzoyl-1,7,11-trideacetylpyripyropene A] | –
10 to 100 nM | +++ (50 > specific activity > 10) | COc1ccccc1C(=O)O[C@H]1CC2C3(C)COC(c4ccccc4)O[C@H]3CC[C@]2(C)C2[C@@H](O)c3c(cc(-c4cccnc4)oc3=O)O[C@@]21C (stereo partly shown) [PRD 042, 1,11-O-benzylidene-7-O-o-methoxybenzoyl-1,7,11-trideacetylpyripyropene A] | –
10 to 100 nM | +++ (50 > specific activity > 10) | COc1cccc(C(=O)O[C@H]2CC3C4(C)COC(c5ccccc5)O[C@H]4CC[C@]3(C)C3[C@@H](O)c4c(cc(-c5cccnc5)oc4=O)O[C@@]32C)c1 (stereo partly shown) [PRD 043, 1,11-O-benzylidene-7-O-m-methoxybenzoyl-1,7,11-trideacetylpyripyropene A] | –
10 to 100 nM | +++ (50 > specific activity > 10) | COc1ccc(C(=O)O[C@H]2CC3C4(C)COC(c5ccccc5)O[C@H]4CC[C@]3(C)C3[C@@H](O)c4c(cc(-c5cccnc5)oc4=O)O[C@@]32C)cc1 (stereo partly shown) [PRD 044, 1,11-O-benzylidene-7-O-p-methoxybenzoyl-1,7,11-trideacetylpyripyropene A] | –
10 to 100 nM | ++ (10 > specific activity > 5) | CC12COC(c3ccccc3)O[C@H]1CC[C@@]1(C)C2C[C@H](OC(=O)c2ccc([N+](=O)[O-])cc2)[C@@]2(C)Oc3cc(-c4cccnc4)oc(=O)c3[C@H](O)C12 (stereo partly shown) [PRD 045, 1,11-O-benzylidene-7-O-p-nitrobenzoyl-1,7,11-trideacetylpyripyropene A] | –
10 to 100 nM | +++ (50 > specific activity > 10) | CC12COC(c3ccccc3)O[C@H]1CC[C@@]1(C)C2C[C@H](OC(=O)c2ccccc2F)[C@@]2(C)Oc3cc(-c4cccnc4)oc(=O)c3[C@H](O)C12 (stereo partly shown) [PRD 046, 1,11-O-benzylidene-7-O-o-fluorobenzoyl-1,7,11-trideacetylpyripyropene A] | –
